Laboratory results published in patent US20250101041A1, “POSITIVE ALLOSTERIC MODULATORS OF THE MUSCARINIC ACETYLCHOLINE RECEPTOR M4” (Vanderbilt University, priority 2022, published 2025).

Biological target: T1, human mAChR M4 (Homo sapiens, UniProt P08173)
T1 construct: expressed in transfected cells; host or cells: CHO-K1 (American Type Culture Collection), stably expressing hM4 and Gqi5
T1 sequence (P08173 1-479): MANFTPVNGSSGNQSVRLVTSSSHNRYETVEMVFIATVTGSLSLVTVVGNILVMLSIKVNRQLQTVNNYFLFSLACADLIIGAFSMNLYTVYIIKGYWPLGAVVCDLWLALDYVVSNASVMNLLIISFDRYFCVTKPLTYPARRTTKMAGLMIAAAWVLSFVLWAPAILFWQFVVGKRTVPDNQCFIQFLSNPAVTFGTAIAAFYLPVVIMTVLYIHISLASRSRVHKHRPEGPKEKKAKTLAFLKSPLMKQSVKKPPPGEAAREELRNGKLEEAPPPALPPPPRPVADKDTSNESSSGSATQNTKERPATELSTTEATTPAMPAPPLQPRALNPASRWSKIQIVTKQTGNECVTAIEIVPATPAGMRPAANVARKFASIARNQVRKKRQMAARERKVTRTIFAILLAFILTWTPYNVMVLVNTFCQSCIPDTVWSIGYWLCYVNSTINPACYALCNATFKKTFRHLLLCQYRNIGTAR
Experiment: mAChR M4 cell-based functional assay: calcium mobilization (Fluo-4, FDSS), potentiation of EC20 acetylcholine response in hM4-Gqi5 CHO-K1 cells
Details: human M4; for Emax at 30 µM: CHO-K1, % ACh maximum at 30 μM; for EC50: potentiation of EC20 acetylcholine response, calcium mobilization
In short: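 CHO-K1 cells stably co-expressing human M4 and chimeric Gqi5, loaded with Fluo-4 AM (50 min, 37 °C). Compounds in 11-point 1:3 series added first; EC20 acetylcholine added at 144 s and again at 230 s. Calcium read on FDSS at 1 Hz; EC50 and Emax from four-parameter logistic fit of potentiated EC20 response.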

## Cc1cc(F)ccc1-c1cnc2c(c1)CN(c1nn3c(=O)ccnc3c(C)c1C)CC2 [Compound 1-264, 7-(3-(4-fluoro-2-methylphenyl)-7,8-dihydro-1,6-naphthyridin-6(5H)-yl)-8,9-dimethyl-4H-pyrimido[1,2-b]pyridazin-4-one]
  Emax at 30 µM: 98%
  EC50: 222 nM

## Cc1c(N2CCc3ncc(-c4ccccc4OC(F)(F)F)cc3C2)nn2c(=O)ccnc2c1C [Compound 1-265, 8,9-dimethyl-7-(3-(2-(trifluoromethoxy)phenyl)-7,8-dihydro-1,6-naphthyridin-6(5H)-yl)-4H-pyrimido[1,2-b] pyridazin-4-one]
  Emax at 30 µM: 61%
  EC50: 929 nM

## Cc1c(N2CCc3ncc(-c4ccccc4C(F)(F)F)cc3C2)nn2c(=O)ccnc2c1C [Compound 1-266, 8,9-dimethyl-7-(3-(2-(trifluoromethyl)phenyl)-7,8-dihydro-1,6-naphthyridin-6(5H)-yl)-4H-pyrimido[1,2-b] pyridazin-4-one]
  Emax at 30 µM: 81%
  EC50: 621 nM

## Cc1c(N2CCc3ncc(-c4ccccc4Cl)cc3C2)nn2c(=O)ccnc2c1C [Compound 1-267, 7-(3-(2-chlorophenyl)-7,8-dihydro-1,6-naphthyridin-6(5H)-yl)-8,9-dimethyl-4H-pyrimido[1,2-b]pyridazin-4-one]
  Emax at 30 µM: 89%
  EC50: 183 nM

## Cc1c(N2CCc3ncc(-c4cc(F)ncc4F)cc3C2)nn2c(=O)ccnc2c1C [Compound 1-268, 7-(3-(2,5-difluoropyridin-4-yl)-7,8-dihydro-1,6-naphthyridin-6(5H)-yl)-8,9-dimethyl-4H-pyrimido[1,2-b]pyridazin-4-one]
  Emax at 30 µM: 83%
  EC50: 230 nM

## COc1cnccc1-c1cnc2c(c1)CN(c1nn3c(=O)ccnc3c(C)c1C)CC2 [Compound 1-269, 7-(3-(3-methoxypyridin-4-yl)-7,8-dihydro-1,6-naphthyridin-6(5H)-yl)-8,9-dimethyl-4H-pyrimido[1,2-b]pyridazin-4-one]
  Emax at 30 µM: 88%
  EC50: 211 nM

## COCc1c(N2CCc3ncc(C(F)(F)F)cc3C2)nn2c(=O)ccnc2c1C [Compound 1-270, 8-(methoxymethyl)-9-methyl-7-(3-(trifluoromethyl)-7,8-dihydro-1,6-naphthyridin-6(5H)-yl)-4H-pyrimido[1,2-b]pyridazin-4-one]
  Emax at 30 µM: 95%
  EC50: 33 nM

## COCc1c(N2CCc3ncc(-c4ccc(C)nc4)cc3C2)nn2c(=O)ccnc2c1C [Compound 1-271, 8-(methoxymethyl)-9-methyl-7-(3-(6-methylpyridin-3-yl)-7,8-dihydro-1,6-naphthyridin-6(5H)-yl)-4H-pyrimido[1,2-b] pyridazin-4-one]
  Emax at 30 µM: 87%
  EC50: 70 nM

## Cc1cc(F)c(F)c(-c2cnc3c(c2)CN(c2nn4c(=O)cc(C)nc4c(C)c2C)CC3)c1 [Compound 1-272, 7-(3-(2,3-difluoro-5-methylphenyl)-7,8-dihydro-1,6-naphthyridin-6(5H)-yl)-2,8,9-trimethyl-4H-pyrimido[1,2-b]pyridazin-4-one]
  Emax at 30 µM: 82%
  EC50: 810 nM

## Cc1cc(=O)n2nc(N3CCc4ncc(-c5cc(F)cc(F)c5F)cc4C3)c(C)c(C)c2n1 [Compound 1-273, 2,8,9-trimethyl-7-(3-(2,3,5-trifluorophenyl)-7,8-dihydro-1,6-naphthyridin-6(5H)-yl)-4H-pyrimido[1,2-b]pyridazin-4-one]
  Emax at 30 µM: 75%
  EC50: 1090 nM

## Cc1cc(=O)n2nc(N3CCc4ncc(-c5ccc(F)cc5C)cc4C3)c(C)c(C)c2n1 [Compound 1-274, 7-(3-(4-fluoro-2-methylphenyl)-7,8-dihydro-1,6-naphthyridin-6(5H)-yl)-2,8,9-trimethyl-4H-pyrimido[1,2-b]pyridazin-4-one]
  Emax at 30 µM: 84%
  EC50: 448 nM

## Cc1cc(=O)n2nc(N3CCc4ncc(-c5ccccc5OC(F)(F)F)cc4C3)c(C)c(C)c2n1 [Compound 1-275, 2,8,9-trimethyl-7-(3-(2-(trifluoromethoxy)phenyl)-7,8-dihydro-1,6-naphthyridin-6(5H)-yl)-4H-pyrimido[1,2-b]pyridazin-4-one]
  Emax at 30 µM: 54%
  EC50: 1790 nM

## COCc1c(C)c(N2CCc3ncc(C(F)(F)F)cc3C2)nn2c(=O)ccnc12 [Compound 1-276, 9-(methoxymethyl)-8-methyl-7-(3-(trifluoromethyl)-7,8-dihydro-1,6-naphthyridin-6(5H)-yl)-4H-pyrimido[1,2-b]pyridazin-4-one]
  Emax at 30 µM: 66%

## Cc1cc(=O)n2nc(N3CCc4ncc(-c5ccccc5C(F)(F)F)cc4C3)c(C)c(C)c2n1 [Compound 1-277, 2,8,9-trimethyl-7-(3-(2-(trifluoromethyl)phenyl)-7,8-dihydro-1,6-naphthyridin-6(5H)-yl)-4H-pyrimido[1,2-b] pyridazin-4-one]
  Emax at 30 µM: 57%
  EC50: 1120 nM

## Cc1cc(=O)n2nc(N3CCc4ncc(-c5ccccc5Cl)cc4C3)c(C)c(C)c2n1 [Compound 1-278, 7-(3-(2-chlorophenyl)-7,8-dihydro-1,6-naphthyridin-6(5H)-yl)-2,8,9-trimethyl-4H-pyrimido[1,2-b]pyridazin-4-one]
  Emax at 30 µM: 81%

## Cc1cc(=O)n2nc(N3CCc4ncc(-c5ccc(F)cc5F)cc4C3)c(C)c(C)c2n1 [Compound 1-279, 7-(3-(2,4-difluorophenyl)-7,8-dihydro-1,6-naphthyridin-6(5H)-yl)-2,8,9-trimethyl-4H-pyrimido[1,2-b]pyridazin-4-one]
  Emax at 30 µM: 81%
  EC50: 1120 nM

## Cc1cc(=O)n2nc(N3CCc4ncc(-c5ccccc5OC(C)C)cc4C3)c(C)c(C)c2n1 [Compound 1-280, 7-(3-(2-isopropoxyphenyl)-7,8-dihydro-1,6-naphthyridin-6(5H)-yl)-2,8,9-trimethyl-4H-pyrimido[1,2-b]pyridazin-4-one]
  Emax at 30 µM: 52%
  EC50: 296 nM

## Cc1cc(=O)n2nc(N3CCc4ncc(-c5cc(F)ncc5F)cc4C3)c(C)c(C)c2n1 [Compound 1-281, 7-(3-(2,5-difluoropyridin-4-yl)-7,8-dihydro-1,6-naphthyridin-6(5H)-yl)-2,8,9-trimethyl-4H-pyrimido[1,2-b]pyridazin-4-one]
  Emax at 30 µM: 85%
  EC50: 498 nM

## COc1cnccc1-c1cnc2c(c1)CN(c1nn3c(=O)cc(C)nc3c(C)c1C)CC2 [Compound 1-282, 7-(3-(3-methoxypyridin-4-yl)-7,8-dihydro-1,6-naphthyridin-6(5H)-yl)-2,8,9-trimethyl-4H-pyrimido[1,2-b]pyridazin-4-one]
  Emax at 30 µM: 90%
  EC50: 481 nM

## Cc1c(N2CCc3ncc(-c4ccc(F)c(F)c4)cc3C2)nn2c(=O)cc(C(F)F)nc2c1C [Compound 1-283, 2-(difluoromethyl)-7-(3-(3,4-difluorophenyl)-7,8-dihydro-1,6-naphthyridin-6(5H)-yl)-8,9-dimethyl-4H-pyrimido[1,2-b]pyridazin-4-one]
  Emax at 30 µM: 79%
  EC50: 900 nM

## Cc1cc(F)c(F)c(-c2cnc3c(c2)CN(c2nn4c(=O)cc(C(F)F)nc4c(C)c2C)CC3)c1 [Compound 1-284, 7-(3-(2,3-difluoro-5-methylphenyl)-7,8-dihydro-1,6-naphthyridin-6(5H)-yl)-2-(difluoromethyl)-8,9-dimethyl-4H-pyrimido[1,2-b] pyridazin-4-one]
  Emax at 30 µM: 77%
  EC50: 1100 nM

## COc1cc(C)c(-c2cnc3c(c2)CN(c2nn4c(=O)cc(C)nc4cc2C)CC3)cn1 [Compound 1-285, 7-(3-(6-methoxy-4-methylpyridin-3-yl)-7,8-dihydro-1,6-naphthyridin-6(5H)-yl)-2,8-dimethyl-4H-pyrimido[1,2-b]pyridazin-4-one]
  Emax at 30 µM: 89%
  EC50: 552 nM

## Cc1cc(=O)n2nc(N3CCc4ncc(-c5cncnc5)cc4C3)c(C)cc2n1 [Compound 1-286, 2,8-dimethyl-7-(3-(pyrimidin-5-yl)-7,8-dihydro-1,6-naphthyridin-6(5H)-yl)-4H-pyrimido[1,2-b]pyridazin-4-one]
  Emax at 30 µM: 68%
  EC50: 8720 nM

## Cc1cc(=O)n2nc(N3CCc4ncc(-c5cnn(C6COC6)c5)cc4C3)c(C)cc2n1 [Compound 1-287, 2,8-dimethyl-7-(3-(1-(oxetan-3-yl)-1H-pyrazol-4-yl)-7,8-dihydro-1,6-naphthyridin-6(5H)-yl)-4H-pyrimido[1,2-b]pyridazin-4-one]
  Emax at 30 µM: 85%
  EC50: 1210 nM

## Cc1cc(=O)n2nc(N3CCc4ncc(-c5cnn6ccccc56)cc4C3)c(C)cc2n1 [Compound 1-288, 2,8-dimethyl-7-(3-(pyrazolo[1,5-a]pyridin-3-yl)-7,8-dihydro-1,6-naphthyridin-6(5H)-yl)-4H-pyrimido[1,2-b] pyridazin-4-one]
  Emax at 30 µM: 84%
  EC50: 311 nM

## Cc1cncc(-c2cnc3c(c2)CN(c2nn4c(=O)cc(C)nc4cc2C)CC3)c1 [Compound 1-289, 2,8-dimethyl-7-(3-(5-methylpyridin-3-yl)-7,8-dihydro-1,6-naphthyridin-6(5H)-yl)-4H-pyrimido[1,2-b] pyridazin-4-one]
  Emax at 30 µM: 70%
  EC50: 4550 nM
